Article PMC2241863 (Nucleic Acids Research, 2007)

Key:
[1] = tested on: E. coli RNase P holoenzyme; assay: E. coli RNase P holoenzyme ptRNATyr processing assay, 'high-salt' buffer; type: biochemical, Escherichia coli; details: 1 mM added to assay
human RNase P = details: cited from earlier work
bacterial RNase P = details: 'low-salt' buffer, cited from earlier work; for IC50: read-out: IC50 for inhibition of bacterial RNase P
[2] = tested on: E. coli RNase P holoenzyme; details: cited from earlier work
E. coli RPR = details: cited from earlier work

| Compound | Effect on E. coli RNase P holoenzyme activity [1] | IC50 (bacterial RNase P) | other results |
| --- | --- | --- | --- |
| N=C(N)N [guanidine] | no effect | – | – |
| N=C(N)NCCC[C@H](N)C(=O)NC[C@@H]1O[C@H](O[C@H]2[C@@H](O)[C@H](O[C@@H]3[C@@H](O)[C@H](NC(=O)[C@@H](N)CCCNC(=N)N)C[C@H](NC(=O)[C@@H](N)CCCNC(=N)N)[C@H]3O[C@H]3O[C@H](CNC(=O)[C@@H](N)CCCNC(=N)N)[C@@H](O)[C@H](O)[C@H]3NC(=O)[C@@H](N)CCCNC(=N)N)O[C@@H]2CO)[C@H](NC(=O)[C@@H](N)CCCNC(=N)N)[C@@H](O)[C@@H]1O [NeoR6] | – | 0.125 µM | Effectiveness against human RNase P compared with bacterial RNase P (human RNase P): not as effective; Potency of NeoR6 relative to NeoB in inhibiting bacterial RNase P (bacterial RNase P): 500 fold |
| NCCCC[C@H](N)C(=O)O [lysine] | no effect | – | – |
| NC[C@@H]1O[C@H](O[C@H]2[C@@H](O)[C@H](O[C@@H]3[C@@H](O)[C@H](N)C[C@H](N)[C@H]3O[C@H]3O[C@H](CN)[C@@H](O)[C@H](O)[C@H]3N)O[C@@H]2CO)[C@H](N)[C@@H](O)[C@@H]1O [NeoB, neomycin B] | – | 60 µM | Increase in IC50 in 'high-salt' instead of 'low-salt' buffer [2]: 7 fold; Increase in IC50 with mutations in E. coli RPR L15 loop (E. coli RPR; L15 mutations that weaken Mg2+ binding): 3 fold |
| NC[C@@H]1O[C@H](O[C@H]2[C@@H](O)[C@H](O[C@@H]3[C@@H](O)[C@H](N)C[C@H](N)[C@H]3O[C@H]3O[C@H](CO)[C@@H](O)[C@H](O)[C@H]3N)O[C@@H]2CO)[C@H](N)[C@@H](O)[C@@H]1O [Par, paromomycin] | – | – | Fold weaker than NeoB in inhibiting bacterial RPR (E. coli RPR): 6 fold |
| N=C(N)NCCC[C@H](N)C(=O)O [arginine] | no effect | – | – |
